According to patent publication US10471035B2, “Compositions and methods for using esters of meroterpenes and of other resveratrol analogues” (Sunny BioDiscovery, priority 2014, dated 2019):

Test system: UVA-irradiated epidermal substitutes cultured on adult fibroblast monolayer
Experiment: Gene expression in UVA-irradiated epidermal substitutes; GEO matching
Type: cell-based
Text: (GSE: GEO Series; GPL: GEO Platforms; stats between −0.05 and 0.05 considered not significant match).
(GSE: GEO Series; GPL: GEO Platforms; stats between −0.05 and 0.05 considered not a significant match).

C=C[C@@](C)(/C=C/c1ccc(OC(=O)c2ccccc2O)cc1)CCC=C(C)C [SBD.SE, Salicylic acid ester of bakuchiol]
GEO match Stat (vitro122 keratinocytes PD98059 24/48 HRS -VS- keratinocytes untreated (GSE50591/GPL571), not matching retinol palmitate): −0.082
GEO match Stat (vitro124 keratinocytes SP60125 SB203580 PD98059 24/48 HRS -VS- keratinocytes untreated (GSE50591/GPL571), not matching retinol palmitate): −0.116
GEO match Stat (vitro128 keratinocytes mitomycin C 18 hrs -VS- keratincytes untreated (GSE50568/GPL570), not matching retinol palmitate): −0.147
GEO match Stat (vitro129 keratinocytes N/Tert immortalized -VS- keratinocytes empty vector (GSE50568/GPL570)): 0.105
GEO match Stat (vitro131 reconstituted epidermis scabies mite extract -VS- reconstituted epidermis untreated (GSE48459/GPL6244)): −0.105
GEO match Stat (vitro132 HaCaT keratinocytes cidofovir -VS- HaCaT keratinocytes untreated (GSE39293/GPL570)): −0.116
GEO match Stat (vitro134 keratinocytes keloid -VS- keratinocytes uninvolved (GSE44270/GPL6244)): 0.153
GEO match Stat (vitro137 N/TERT-1 keratinocytes miR-198 -VS- N/TERT-1 keratinocytes control (GSE37967/GPL10558)): 0.197
GEO match Stat (vitro139 HaCaT keratinocytes miR-483-3p overexpression -VS- HaCaT keratinocytes control (GSE19931/GPL1456)): −0.08
GEO match Stat (vitro145 HaCaT keratinocytes cobalt(II) chloride 3 hrs -VS- HaCaT keratinocytes water control (GSE16727/GPL4133)): 0.1
GEO match Stat (vitro147 HaCaT keratinocytes tungsten carbide cobalt 3 days -VS- HaCaT keratinocytes water control (GSE16727/GPL4133), not matching retinol palmitate): 0.09
GEO match Stat (vitro148 HaCaT keratinocytes cobalt(II) chloride 3 hrs -VS- HaCaT keratinocytes water control (GSE16727/GPL4133)): 0.122
GEO match Stat (vitro150 reconstituted epidermis 0 hrs after 10 cGy radiation -VS- reconstituted epidermis control (GSE29344/GPL6883)): −0.073
GEO match Stat (vitro151 reconstituted epidermis 3 hrs after 10 cGy radiation -VS- reconstituted epidermis control (GSE29344/GPL6883)): −0.088
GEO match Stat (vitro152 reconstituted epidermis 8 hrs after 10 cGy radiation -VS- reconstituted epidermis control (GSE29344/GPL6883)): −0.078
GEO match Stat (vitro153 reconstituted epidermis 24 hrs after 10 cGy radiation -VS- reconstituted epidermis control (GSE29344/GPL6883)): −0.154
GEO match Stat (vitro156 reconstituted epidermis 8 hrs after 100 cGy radiation -VS- reconstituted epidermis control (GSE29344/GPL6883)): −0.119
GEO match Stat (vitro160 HaCaT keratinocytes 5′-aza-2-deoxycytidine -VS- HaCaT keratinocytes untreated (GSE33493/GPL6883), not matching retinol palmitate): −0.098
GEO match Stat (vitro165 HaCaT keratinocytes Ino-C2-PAF + IL1A + IL17 + IL22 + TNF + OsM -VS- HaCaT keratinocytes untreated (GSE37361/GPL13607)): −0.119
GEO match Stat (vivo1 PP skin -VS- PN skin (GSE2737/GPL91), not matching retinol palmitate): 0.085
GEO match Stat (vivo6 PP skin -VS- PN skin (GSE26866/GPL571), not matching retinol palmitate): 0.127
GEO match Stat (vivo7 PP skin -VS- PN skin (GSE30999/GPL570), not matching retinol palmitate): 0.115
GEO match Stat (vivo8 PP skin -VS- NN skin (GSE13355/GPL570), not matching retinol palmitate): 0.123
GEO match Stat (vivo9 PP skin -VS- NN skin (GSE14905/GPL570), not matching retinol palmitate): 0.132
GEO match Stat (vivo12 PP epidermis -VS- PN epidermis (GSE26866/GPL571), not matching retinol palmitate): 0.084
GEO match Stat (vivo15 PP skin 1 wk etanercept -VS- PN skin baseline (GSE11903/GPL571), not matching retinol palmitate): 0.108
GEO match Stat (vivo19 PP skin etanercept 1 wk -VS- PP skin baseline (GSE11903/GPL571), not matching retinol palmitate): −0.134
GEO match Stat (vivo25 PN skin IFNg-treated 24 hrs -VS- PN skin baseline (GSE32407/GPL571)): −0.11
GEO match Stat (vivo26 PN skin IFNg-treated 24 hrs -VS- PN skin placebo 24 hrs (GSE32407/GPL571)): −0.119
GEO match Stat (vivo27 NN skin IFNg-treated 24 hrs -VS- NN skin baseline (GSE32407/GPL571)): −0.09
GEO match Stat (vivo32 atopic dermatitis uninvolved epidermis -VS- NN epidermis (GSE26952/GPL2700)): 0.098
GEO match Stat (vivo42 atopic dermatitis lesion -VS- NN skin (GSE5667/GPL96 + GPL97)): 0.11
GEO match Stat (vivo43 atopic dermatitis lesion -VS- uninvolved skin (GSE5667/GPL96 + GPL97)): 0.111
GEO match Stat (vivo49 epidermis sodium lauryl sulphate 11 days -VS- epidermis basline (GSE18206/GPL570)): 0.152
GEO match Stat (vivo50 epidermis nonanoic acid 30 min -VS- epidermis basline (GSE18206/GPL570)): 0.125
GEO match Stat (vivo51 epidermis nonanoic acid 4 hrs -VS- epidermis basline (GSE18206/GPL570)): 0.103
GEO match Stat (vivo53 epidermis nonanoic acid 11 days -VS- epidermis basline (GSE18206/GPL570)): 0.17
GEO match Stat (vivo59 wound margin 7+ days healed -VS- NN skin (GSE8056/GPL570), not matching retinol palmitate): 0.094
GEO match Stat (vivo73 skin diffuse cutaneous systemic sclerosis -VS- NN skin (GSE32413/GPL4133), not matching retinol palmitate): 0.088
GEO match Stat (vivo76 skin isotretinoin 8 wks -VS- skin baseline (GSE11792/GPL571), not matching retinol palmitate): −0.128
GEO match Stat (vivo82 skin Haemophilus ducreyi infected -VS- skin PBS treated (GSE5547/GPL570)): −0.105
GEO match Stat (vivo83 basal cell carcinoma -VS- NN skin (GSE7553/GPL570), not matching retinol palmitate): 0.081
GEO match Stat (vivo85 squamous cell carcinoma -VS- NN skin (GSE7553/GPL570), not matching retinol palmitate): 0.12
GEO match Stat (vivo88 squamous cell carcinoma -VS- NN skin (GSE2503/GPL96), not matching retinol palmitate): 0.111
GEO match Stat (vivo93 melanoma in situ -VS- NN skin (GSE4587/GPL570), not matching retinol palmitate): 0.102
GEO match Stat (inverse correlation with SBD.SE effect) (vivo99 UVB radiation 1 minimal erythema dose -VS- untreated skin (GSE22083/GPL96)): −0.088
GEO match Stat (inverse correlation with SBD.SE effect) (vivo100 UVB radiation 100 J/m2 -VS- untreated skin (GSE22083/GPL96)): −0.102
GEO match Stat (inverse correlation with SBD.SE effect) (vivo101 UVA radiation 0.1 minimal erythema dose -VS- untreated skin (GSE22083/GPL96)): −0.096
GEO match Stat (vivo110 reticular dermis -VS- NN Skin (GSE42114/GPL570), not matching retinol palmitate): −0.074
GEO match Stat (vivo114 dermatomyositis -VS- NN Skin (GSE46239/GPL570)): 0.116
GEO match Stat (vivo115 seborrheic keratosis -VS- uninvolved Skin (GSE22998/(GPL570)), not matching retinol palmitate): 0.075
GEO match Stat (vivo116 eschars in mediterranean spotted fever -VS- NN Skin (GSE32993/GPL6480), not matching retinol palmitate): 0.097
GEO match Stat (vivo118 narrow-band UVB 24 hrs -VS- uninvolved skin (GSE41078/GPL571)): −0.116
GEO match Stat (vivo120 atopic dermatitis chronic -VS- uninvolved skin (GSE36842/GPL570), not matching retinol palmitate): 0.125
